We go through seven compounds from publication PMC5785503, “Development of novel fluorescent histamine H1-receptor antagonists to study ligand-binding kinetics in living cells” (Scientific Reports, 2018).

One assay deals with H1R. Further details: method as in PMID 22007643. The following applies: parent compound at the H1R; cited from earlier work.
In the next assay the target is T1, human H1R (Homo sapiens, UniProt P35367).
T1 construct: expressed in transfected cells
In words: [3H]mepyramine competition radioligand binding, HEK293T cell homogenates. The following applies: read-out: Radioligand binding pKi (converted). The procedure: […]. […] […]. All ligand binding was performed under gentle agitation. […] […].

Assay [1] has as its target T2, Nluc-H1R (Homo sapiens, UniProt P35367). In words: NanoBRET saturation binding in whole HEK293T cells. The source says: (§1) Immediately before experimentation, media was replaced with HBSS. […] […]. […] […].
(In general: Bioluminescence resonance energy transfer reports proximity on the nanometre scale.)

For assay [2], the target named is T2, Nluc-H1R. The experiment in a line: NanoBRET association kinetics in whole HEK293T cells. The following applies: for Kd: kinetic KD (koff/kon), whole HEK293T cells expressing Nluc-H1R, read-out: NanoBRET kinetics pKD (converted); for residence time: read-out: NanoBRET kinetics Tr (residence time); for koff: read-out: NanoBRET kinetics koff, whole HEK293T cells expressing Nluc-H1R, room temperature; for kon: read-out: NanoBRET kinetics kon, whole HEK293T cells expressing Nluc-H1R, room temperature, non-specific 10 μM doxepin. Type of assay: binding.
Description: as §1

Assay [3] deals with T2, Nluc-H1R. The experiment in a line: NanoBRET saturation binding in HEK293T cell membranes. The following applies: value used in Cheng-Prusoff equation, read-out: KD of labelled ligand in membranes. The procedure: (§2) HEK293T cell stably expressing Nluc-H1 were grown to confluence in 500 cm^2 dishes. Normal growth media was replaced with ice-cold PBS and the cells were removed from the dish by scraping. The cells were then transferred to a 50 ml tube and centrifuged at 250 × g for 5 min. The supernatant was removed and the resulting pellets stored at −80 °C. Thawed pellets were resuspended in PBS and homogenized using an electrical homogenizer in 10 × 2 s bursts. Unbroken cells and nuclei were removed by centrifugation (1200 × g for 10 min) and the supernatant subsequently centrifuged at 41,415 g for 30 min. The membrane pellet was resuspended in PBS and homogenized by 20 passes of a glass-on-Teflon homogenizer. Protein concentration was determined using a BCA protein assay and membranes stored at −80 °C until required.
(§3) Immediately before experimentation, media was replaced with HBSS. […] For association kinetics experiments, the required concentration of fluorescent ligand in the presence or absence of 10 µM doxepin was added simultaneously. […] Non-specific binding was determined by the addition of […] 10 µM doxepin.

The target of assay [4] is T2, Nluc-H1R. In words: NanoBRET association kinetics in HEK293T cell membranes. The assay is classed as binding. The following applies: kinetic, n = 4, read-out: pKD (calculated affinity) in membranes (converted). The method, then: as §2, §3
From association kinetic data, non-specific binding was determined for each concentration of fluorescent ligand at each time point by the addition of 10 µM doxepin and was subtracted from total binding.

The target in a further assay is T3, H1-YFP (Homo sapiens, UniProt P35367).
T3 construct: expressed in transfected cells
Type of assay: cell-based. The method, then: CHO H1R and CHO H1-YFP cells were grown to approximately 80% confluency on 8-well Labtek chambered coverglasses (Nunc Nalgene). […] Cells were then incubated with the required concentration of fluorescent ligand for 30 min prior to the collection of single equatorial confocal images. Images were obtained using a Zeiss LSM710 confocal microscope (Carl Zeiss GmbH, Jena, Germany) fitted with a 63× plan-Apochromat NA1.3 Ph3 oil-immersion lens within the School of Life Sciences Imaging Unit. […] For all experiments a pinhole of 1 Airy Unit was used and fixed laser power, gain and offset for the BY630 containing compounds were kept the same for samples within each experiment.

Setting [5] is: HEK293T cells expressing Nluc-H1R, mean ± SEM, read-out: NanoBRET saturation pKD (converted).
Setting [6] is: NanoBRET, value used in Cheng-Prusoff equation, read-out: KD of labelled ligand in whole cells.

T3 sequence (P35367 whole entry): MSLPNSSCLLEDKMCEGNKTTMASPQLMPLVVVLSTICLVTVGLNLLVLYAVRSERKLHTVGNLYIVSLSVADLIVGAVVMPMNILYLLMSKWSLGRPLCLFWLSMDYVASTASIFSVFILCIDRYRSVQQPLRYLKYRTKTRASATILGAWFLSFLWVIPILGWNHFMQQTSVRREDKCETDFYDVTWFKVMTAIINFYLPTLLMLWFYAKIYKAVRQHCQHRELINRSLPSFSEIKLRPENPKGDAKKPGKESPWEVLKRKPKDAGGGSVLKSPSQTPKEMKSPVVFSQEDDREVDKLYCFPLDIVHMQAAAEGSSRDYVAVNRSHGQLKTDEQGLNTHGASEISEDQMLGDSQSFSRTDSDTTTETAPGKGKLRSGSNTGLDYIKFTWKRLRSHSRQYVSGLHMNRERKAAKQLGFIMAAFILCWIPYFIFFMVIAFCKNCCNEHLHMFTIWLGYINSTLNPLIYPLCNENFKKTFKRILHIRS
T1 sequence (P35367 whole entry): as above
T2 sequence (P35367 2-487 limits assumed): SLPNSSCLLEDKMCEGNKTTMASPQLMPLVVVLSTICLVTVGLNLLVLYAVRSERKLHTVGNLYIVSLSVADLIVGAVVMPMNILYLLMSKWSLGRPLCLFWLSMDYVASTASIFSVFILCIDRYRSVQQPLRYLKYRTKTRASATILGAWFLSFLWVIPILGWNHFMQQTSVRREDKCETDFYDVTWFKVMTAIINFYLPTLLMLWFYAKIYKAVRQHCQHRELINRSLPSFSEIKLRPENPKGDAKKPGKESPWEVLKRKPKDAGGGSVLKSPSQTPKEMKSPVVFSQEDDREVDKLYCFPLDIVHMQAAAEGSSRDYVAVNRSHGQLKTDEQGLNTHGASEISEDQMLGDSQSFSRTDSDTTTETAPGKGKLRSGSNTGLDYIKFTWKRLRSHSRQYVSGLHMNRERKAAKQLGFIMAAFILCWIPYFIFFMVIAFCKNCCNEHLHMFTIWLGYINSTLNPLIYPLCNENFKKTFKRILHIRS

As to `c1ccc(Cc2ccccc2OC2CCNCC2)cc1` [VUF13816, 4-(2-benzylphenoxy)piperidine], the negative-log Ki (pKi) (usually the negative decadic logarithm of the Ki, by convention in mol/L) at H1R is recorded as 8.20.
Take `COc1ccc(CN(CCN(C)CCC(=O)N[C@@H](C)C(=O)N[C@@H](C)C(=O)NCCNC(=O)CCCCCNC(=O)COc2ccc(/C=C/C3=[N+]4C(=Cc5ccc(-c6cccs6)n5[B-]4(F)F)C=C3)cc2)c2ccccn2)cc1` [Compound 10, 6-(2-(4-((E)-2-(5,5-difluoro-7-(thiophen-2-yl)-5H-4λ^4,5λ^4-dipyrrolo[1,2-c:2′,1′-f][1,3,2]diazaborinin-3-yl)vinyl)phenoxy)acetamido)-N-((10 S,13 S)-1-(4-methoxyphenyl)-5,10,13-trimethyl-8,11,14-trioxo-2-(pyridin-2-yl)-2,5,9,12,15-pentaazaheptadecan-17-yl)hexanamide]: at human H1R, the Ki was 25.1 nM. Also, the Kd on Nluc-H1R [1] (setting [5]) was 7.94 nM; on Nluc-H1R [1] (setting [6]), 9.2 nM; at Nluc-H1R [2], 5.01 nM; on Nluc-H1R [3] it was 28.8 nM; at Nluc-H1R [4], 3.55 nM. The residence time at Nluc-H1R [2] amounted to 4.99 ± 0.78 min. Also, the “BODIPY630/650 fluorescence localisation (confocal)” value on H1-YFP is given as “clear membrane localisation”. Moreover, on H1-YFP, the “fluorescence after pre-treatment with unlabelled mepyramine (specificity, confocal)” value (“fluorescence after pre-treatment” below) is on record as “very little fluorescence was observed”.
As for `NC(=O)C[C@H](NC(=O)CNC(=O)CNC(=O)CCN1CCC(Oc2ccccc2Cc2ccccc2)CC1)C(=O)NCCNC(=O)CCCCCNC(=O)COc1ccc(/C=C/C2=[N+]3C(=Cc4ccc(-c5cccs5)n4[B-]3(F)F)C=C2)cc1` [Compound 24, (S,E)-2-(2-(2-(3-(4-(2-benzylphenoxy)piperidin-1-yl)propanamido)acetamido)acetamido)-N^1-(2-(6-(2-(4-(2-(5,5-difluoro-7-(thiophen-2-yl)-5H-4λ^4,5λ^4-dipyrrolo[1,2-c:2′,1′-f][1,3,2]diazaborinin-3-yl)vinyl)phenoxy)acetamido)hexanamido)ethyl)succinamide], the Ki on human H1R is 5.01 nM. The Kd on Nluc-H1R [1] (setting [5]) is 25.1 nM. Also, at Nluc-H1R [2], the Kd was 10 nM; the residence time came to 37.8 ± 3.44 min; the koff (as a rule, the rate constant with which the complex falls apart) is 0.00045 s⁻¹; the kon (commonly a measure of how fast the partners come together) was 48300 M⁻¹ s⁻¹.
As for `COc1ccc(CN(CCN(C)CCC(=O)N[C@@H](C)C(=O)N[C@@H](C)C(=O)N[C@@H](CO)C(=O)NCCNC(=O)CCCCCNC(=O)COc2ccc(/C=C/C3=[N+]4C(=Cc5ccc(-c6cccs6)n5[B-]4(F)F)C=C3)cc2)c2ccccn2)cc1` [Compound 11, 6-(2-(4-((E)-2-(5,5-difluoro-7-(thiophen-2-yl)-5H-4λ^4,5λ^4-dipyrrolo[1,2-c:2′,1′-f][1,3,2]diazaborinin-3-yl)vinyl)phenoxy)acetamido)-N-((10 S,13 S,16 S)-16-(hydroxymethyl)-1-(4-methoxyphenyl)-5,10,13-trimethyl-8,11,14,17-tetraoxo-2-(pyridin-2-yl)-2,5,9,12,15,18-hexaazaicosan-20-yl)hexanamide], at human H1R, the Ki is 10 nM. The Kd on Nluc-H1R [1] (setting [5]) is 63.1 nM. In addition, on Nluc-H1R [2], the Kd is 6.31 nM, the residence time is 8.4 ± 0.91 min, the koff was 0.0021 s⁻¹ and the kon is 330000 M⁻¹ s⁻¹. In addition, at H1-YFP, the “BODIPY630/650 fluorescence localisation (confocal)” value was “clear membrane localisation” and the “fluorescence after pre-treatment” value is on record as “some residual cell surface fluorescence was observed”.
As to `COc1ccc(CN(CCN(C)CCC(=O)NCCCC(=O)N[C@@H](C)C(=O)N[C@@H](C)C(=O)NCCNC(=O)CCCCCNC(=O)COc2ccc(/C=C/C3=[N+]4C(=Cc5ccc(-c6cccs6)n5[B-]4(F)F)C=C3)cc2)c2ccccn2)cc1` [Compound 12, 5,5-difluoro-3-((E)-4-(((15 R,18 R)-1-(4-methoxyphenyl)-5,15,18-trimethyl-8,13,16,19,24,31-hexaoxo-2-(pyridin-2-yl)-2,5,9,14,17,20,23,30-octaazadotriacontan-32-yl)oxy)styryl)-7-(thiophen-2-yl)-5H-4λ^4-dipyrrolo[1,2-c:2′,1′-f][1,3,2]diazaborinin-5-uide], at human H1R, the Ki was 20 nM. At Nluc-H1R [1] (setting [5]), the Kd is 50.1 nM. Also, at Nluc-H1R [2], the Kd was 39.8 nM, the residence time is 7.68 ± 0.58 min, the koff was 0.00223 s⁻¹ and the kon is 55000 M⁻¹ s⁻¹. In addition, on H1-YFP, the “BODIPY630/650 fluorescence localisation (confocal)” value was “clear membrane localisation” and the “fluorescence after pre-treatment” value is recorded as “very little fluorescence was observed”.
As for `CC(O)[C@H](NC(=O)[C@H](C)NC(=O)[C@H](CC(N)=O)NC(=O)CCN1CCC(Oc2ccccc2Cc2ccccc2)CC1)C(=O)NCCNC(=O)CCCCCNC(=O)COc1ccc(/C=C/C2=[N+]3C(=Cc4ccc(-c5cccs5)n4[B-]3(F)F)C=C2)cc1` (stereo partly drawn) [Compound 25, (S)-2-(3-(4-(2-benzylphenoxy)piperidin-1-yl)propanamido)-N^1-((15 S,18 S)-1-(4-((E)-2-(5,5-difluoro-7-(thiophen-2-yl)-5H-4λ^4,5λ^4-dipyrrolo[1,2-c:2′,1’-f][1,3,2]diazaborinin-3-yl)vinyl)phenoxy)-15-((S)-1-hydroxyethyl)-2,9,14,17-tetraoxo-3,10,13,16-tetraazanonadecan-18-yl)succinamide], at human H1R, the Ki is 6.31 nM. Also, at Nluc-H1R [1] (setting [5]), the Kd was 31.6 nM. Besides, at Nluc-H1R [2], the Kd was 10 nM, the residence time stood at 39.5 ± 9.4 min, the koff is 0.0005 s⁻¹ and the kon was 43300 M⁻¹ s⁻¹.
Consider `C[C@H](NC(=O)CCN1CCC(Oc2ccccc2Cc2ccccc2)CC1)C(=O)N[C@@H](C)C(=O)N[C@@H](C)C(=O)NCCNC(=O)CCCCCNC(=O)COc1ccc(/C=C/C2=[N+]3C(=Cc4ccc(-c5cccs5)n4[B-]3(F)F)C=C2)cc1` [Compound 23, N-((5 S,8 S,11 S)-15-(4-(2-benzylphenoxy)piperidin-1-yl)-5,8,11-trimethyl-4,7,10,13-tetraoxo-3,6,9,12-tetraazapentadecyl)-6-(2-(4-((E)-2-(5,5-difluoro-7-(thiophen-2-yl)-5H-4λ^4,5λ^4-dipyrrolo[1,2-c:2′,1′-f][1,3,2]diazaborinin-3-yl)vinyl)phenoxy)acetamido)hexanamide], for which, on human H1R, the Ki was 3.98 nM. The Kd on Nluc-H1R [1] (setting [5]) was 7.94 nM. Moreover, the Kd on Nluc-H1R [1] (setting [6]) amounted to 9.8 nM. Further, at Nluc-H1R [2], the Kd is 12.6 nM, the residence time amounted to 54.1 ± 5.33 min, the koff was 0.000317 s⁻¹ and the kon is 26700 M⁻¹ s⁻¹. Moreover, the “fluorescence after pre-treatment” value at H1-YFP is on record as “Some residual binding was observed”.
